Results as given in PubChem BioAssay AID1963982 (Molecular Pharmacology Branch, DTP, NCI, 2024).
Values belong to the compound of their own block, whether it stands above or below them.

System: 313798-341-R-J2-PDC spheroids, viability
Test: Anticancer human tumor 313798-341-R-J2-PDC patient-derived cervical squamous cell carcinoma cell line growth inhibition [PI3K]
Conditions: spheroids with HUVEC and MSC; for IC50: curve of first compound; for viability, T/C: stronger effect = lower value
Summary of the method: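 Multi-cell spheroids combine tumor cells with HUVEC and human MSCs, treated with targeted agents alone or with inavolisib, alpelisib, duvelisib or copanlisib. Concentrations fall in half-log steps from at or near clinical Cmax, or from 10 microM where Cmax is unknown; viability read-out.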

[1] = second compound 0.0316 µM, first compound 0.000316 µM
[2] = second compound 0.0316 µM, first compound 0.001 µM
[3] = second compound 0.0316 µM, first compound 0.00316 µM
[4] = second compound 0.0316 µM, first compound 0.01 µM
[5] = second compound 0.0316 µM, first compound 0.0316 µM
[6] = second compound 0.0316 µM, first compound 0.1 µM
[7] = second compound 0.1 µM, first compound 0.000316 µM
[8] = second compound 0.1 µM, first compound 0.001 µM
[9] = second compound 0.1 µM, first compound 0.00316 µM
[10] = second compound 0.1 µM, first compound 0.01 µM
[11] = second compound 0.1 µM, first compound 0.0316 µM
[12] = second compound 0.1 µM, first compound 0.1 µM
[13] = second compound 0.316 µM, first compound 0.000316 µM
[14] = second compound 0.316 µM, first compound 0.001 µM
[15] = second compound 0.316 µM, first compound 0.00316 µM
[16] = second compound 0.316 µM, first compound 0.01 µM
[17] = second compound 0.316 µM, first compound 0.0316 µM
[18] = second compound 0.316 µM, first compound 0.1 µM
[19] = second compound 1 µM, first compound 0.000316 µM
[20] = second compound 1 µM, first compound 0.001 µM
[21] = second compound 1 µM, first compound 0.00316 µM
[22] = second compound 1 µM, first compound 0.01 µM
[23] = second compound 1 µM, first compound 0.0316 µM
[24] = second compound 1 µM, first compound 0.1 µM
[25] = second compound 3.16 µM, first compound 0.000316 µM
[26] = second compound 3.16 µM, first compound 0.001 µM
[27] = second compound 3.16 µM, first compound 0.00316 µM
[28] = second compound 3.16 µM, first compound 0.01 µM
[29] = second compound 3.16 µM, first compound 0.0316 µM
[30] = second compound 3.16 µM, first compound 0.1 µM
[31] = second compound 10 µM, first compound 0.000316 µM
[32] = second compound 10 µM, first compound 0.001 µM
[33] = second compound 10 µM, first compound 0.00316 µM
[34] = second compound 10 µM, first compound 0.01 µM
[35] = second compound 10 µM, first compound 0.0316 µM
[36] = second compound 10 µM, first compound 0.1 µM
[37] = second compound 0.0316 µM, first compound 0.316 µM
[38] = second compound 0.0316 µM, first compound 1 µM
[39] = second compound 0.0316 µM, first compound 3.16 µM
[40] = second compound 0.0316 µM, first compound 10 µM
[41] = second compound 0.1 µM, first compound 0.316 µM
[42] = second compound 0.1 µM, first compound 1 µM
[43] = second compound 0.1 µM, first compound 3.16 µM
[44] = second compound 0.1 µM, first compound 10 µM
[45] = second compound 0.316 µM, first compound 0.316 µM
[46] = second compound 0.316 µM, first compound 1 µM
[47] = second compound 0.316 µM, first compound 3.16 µM
[48] = second compound 0.316 µM, first compound 10 µM
[49] = second compound 1 µM, first compound 0.316 µM
[50] = second compound 1 µM, first compound 1 µM
[51] = second compound 1 µM, first compound 3.16 µM
[52] = second compound 1 µM, first compound 10 µM
[53] = second compound 3.16 µM, first compound 0.316 µM
[54] = second compound 3.16 µM, first compound 1 µM
[55] = second compound 3.16 µM, first compound 3.16 µM
[56] = second compound 3.16 µM, first compound 10 µM
[57] = second compound 10 µM, first compound 0.316 µM
[58] = second compound 10 µM, first compound 1 µM
[59] = second compound 10 µM, first compound 3.16 µM
[60] = second compound 10 µM, first compound 10 µM
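Further: spheroids exposed to compounds for seven days.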
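Wherever viability, T/C is given: 100% = DMSO vehicle control viability.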

- IC50 (second compound 0.0316 µM): > 0.1 µM
- IC50 (second compound 0.1 µM): > 0.1 µM
- IC50 (second compound 0.316 µM): > 0.1 µM
- IC50 (second compound 1 µM): > 0.1 µM
- IC50 (second compound 3.16 µM): > 0.1 µM
- IC50 (second compound 10 µM): > 0.1 µM
SMILES: CC(=O)c1c(C)c2cnc(Nc3ccc(N4CCNCC4)cn3)nc2n(C2CCCC2)c1=O + CC(Nc1ncnc2nc[nH]c12)c1cc2cccc(Cl)c2c(=O)n1-c1ccccc1
- viability, T/C [1]: 100%
- viability, T/C [2]: 112%
- viability, T/C [3]: 98.8%
- viability, T/C [4]: 102%
- viability, T/C [5]: 101%
- viability, T/C [6]: 106%
- viability, T/C [7]: 104%
- viability, T/C [8]: 104%
- viability, T/C [9]: 108%
- viability, T/C [10]: 109%
- viability, T/C [11]: 103%
- viability, T/C [12]: 97.4%
- viability, T/C [13]: 99.6%
- viability, T/C [14]: 105%
- viability, T/C [15]: 91.1%
- viability, T/C [16]: 110%
- viability, T/C [17]: 95.3%
- viability, T/C [18]: 104%
- viability, T/C [19]: 108%
- viability, T/C [20]: 107%
- viability, T/C [21]: 94.1%
- viability, T/C [22]: 106%
- viability, T/C [23]: 99.2%
- viability, T/C [24]: 106%
- viability, T/C [25]: 100%
- viability, T/C [26]: 108%
- viability, T/C [27]: 104%
- viability, T/C [28]: 97%
- viability, T/C [29]: 100%
- viability, T/C [30]: 103%
- viability, T/C [31]: 93%
- viability, T/C [32]: 94.8%
- viability, T/C [33]: 92.6%
- viability, T/C [34]: 98.2%
- viability, T/C [35]: 92.3%
- viability, T/C [36]: 87.5%

- IC50 (second compound 0.0316 µM): 0.0588 µM
- IC50 (second compound 0.1 µM): 0.0647 µM
- IC50 (second compound 0.316 µM): 0.0651 µM
- IC50 (second compound 1 µM): 0.05 µM
- IC50 (second compound 3.16 µM): 0.0555 µM
- IC50 (second compound 10 µM): 0.0254 µM
SMILES: CC(C)n1nc(-c2ccc3oc(N)nc3c2)c2c(N)ncnc21 + CC(Nc1ncnc2nc[nH]c12)c1cc2cccc(Cl)c2c(=O)n1-c1ccccc1
- viability, T/C [1]: 102%
- viability, T/C [2]: 96.8%
- viability, T/C [3]: 108%
- viability, T/C [4]: 96.5%
- viability, T/C [5]: 65.7%
- viability, T/C [6]: 36.6%
- viability, T/C [7]: 109%
- viability, T/C [8]: 92.9%
- viability, T/C [9]: 97%
- viability, T/C [10]: 101%
- viability, T/C [11]: 67.9%
- viability, T/C [12]: 39.1%
- viability, T/C [13]: 101%
- viability, T/C [14]: 94.2%
- viability, T/C [15]: 100%
- viability, T/C [16]: 97.4%
- viability, T/C [17]: 66.4%
- viability, T/C [18]: 40.2%
- viability, T/C [19]: 100%
- viability, T/C [20]: 91.5%
- viability, T/C [21]: 99.8%
- viability, T/C [22]: 89.7%
- viability, T/C [23]: 58.8%
- viability, T/C [24]: 36.8%
- viability, T/C [25]: 117%
- viability, T/C [26]: 94.2%
- viability, T/C [27]: 93.7%
- viability, T/C [28]: 82.2%
- viability, T/C [29]: 55.5%
- viability, T/C [30]: 40.6%
- viability, T/C [31]: 87.6%
- viability, T/C [32]: 91.9%
- viability, T/C [33]: 78.5%
- viability, T/C [34]: 57.1%
- viability, T/C [35]: 51.9%
- viability, T/C [36]: 27.1%

- IC50 (second compound 0.0316 µM): 8.41 µM
- IC50 (second compound 0.1 µM): 9.89 µM
- IC50 (second compound 0.316 µM): 9.97 µM
- IC50 (second compound 1 µM): 9.98 µM
- IC50 (second compound 3.16 µM): 7.56 µM
- IC50 (second compound 10 µM): 6.37 µM
SMILES: CC1(C)CCC(CN2CCN(c3ccc(C(=O)NS(=O)(=O)c4ccc(NCC5CCOCC5)c([N+](=O)[O-])c4)c(Oc4cnc5[nH]ccc5c4)c3)CC2)=C(c2ccc(Cl)cc2)C1 + CC(Nc1ncnc2nc[nH]c12)c1cc2cccc(Cl)c2c(=O)n1-c1ccccc1
- viability, T/C [5]: 104%
- viability, T/C [6]: 86.6%
- viability, T/C [37]: 107%
- viability, T/C [38]: 99.5%
- viability, T/C [39]: 85.2%
- viability, T/C [40]: 43.6%
- viability, T/C [11]: 91.6%
- viability, T/C [12]: 108%
- viability, T/C [41]: 85.4%
- viability, T/C [42]: 89.2%
- viability, T/C [43]: 84.8%
- viability, T/C [44]: 49.1%
- viability, T/C [17]: 99.4%
- viability, T/C [18]: 101%
- viability, T/C [45]: 102%
- viability, T/C [46]: 102%
- viability, T/C [47]: 82.4%
- viability, T/C [48]: 50%
- viability, T/C [23]: 103%
- viability, T/C [24]: 100%
- viability, T/C [49]: 94.5%
- viability, T/C [50]: 96.8%
- viability, T/C [51]: 74.4%
- viability, T/C [52]: 49.9%
- viability, T/C [29]: 103%
- viability, T/C [30]: 95.3%
- viability, T/C [53]: 85.2%
- viability, T/C [54]: 89.8%
- viability, T/C [55]: 79.8%
- viability, T/C [56]: 40.5%
- viability, T/C [35]: 82.1%
- viability, T/C [36]: 78.8%
- viability, T/C [57]: 87%
- viability, T/C [58]: 78.1%
- viability, T/C [59]: 62.3%
- viability, T/C [60]: 42.1%

- IC50 (second compound 0.0316 µM): 8.61 µM
- IC50 (second compound 0.1 µM): 6.79 µM
- IC50 (second compound 0.316 µM): 6.52 µM
- IC50 (second compound 1 µM): 7.03 µM
- IC50 (second compound 3.16 µM): 6.39 µM
- IC50 (second compound 10 µM): 4.69 µM
SMILES: CCCS(=O)(=O)Nc1ccc(F)c(C(=O)c2c[nH]c3ncc(-c4ccc(Cl)cc4)cc23)c1F + CC(Nc1ncnc2nc[nH]c12)c1cc2cccc(Cl)c2c(=O)n1-c1ccccc1
- viability, T/C [5]: 103%
- viability, T/C [6]: 103%
- viability, T/C [37]: 108%
- viability, T/C [38]: 105%
- viability, T/C [39]: 96.5%
- viability, T/C [40]: 43%
- viability, T/C [11]: 112%
- viability, T/C [12]: 103%
- viability, T/C [41]: 90.3%
- viability, T/C [42]: 90.9%
- viability, T/C [43]: 92.8%
- viability, T/C [44]: 28.1%
- viability, T/C [17]: 92.6%
- viability, T/C [18]: 96.5%
- viability, T/C [45]: 101%
- viability, T/C [46]: 104%
- viability, T/C [47]: 93.9%
- viability, T/C [48]: 23.8%
- viability, T/C [23]: 112%
- viability, T/C [24]: 99.6%
- viability, T/C [49]: 98.8%
- viability, T/C [50]: 116%
- viability, T/C [51]: 98.8%
- viability, T/C [52]: 27.8%
- viability, T/C [29]: 107%
- viability, T/C [30]: 101%
- viability, T/C [53]: 118%
- viability, T/C [54]: 106%
- viability, T/C [55]: 90.1%
- viability, T/C [56]: 24.5%
- viability, T/C [35]: 95%
- viability, T/C [36]: 101%
- viability, T/C [57]: 91.2%
- viability, T/C [58]: 83.8%
- viability, T/C [59]: 69.2%
- viability, T/C [60]: 16.6%
